The values below are quoted from earlier work in patent publication US20030158237A1, “Combination of antioxidant substances for the treatment of alzheimer's disease” (priority 2001, published 2003).

One series relates to isolated LDL. The following applies: 0.025-0.3 mg/l added to isolated LDL; dose dependent.
Series [1] relates to NF-kappa B binding induced by ceramide. The following applies: in comparison with N-acetylcystein, acetate d-alpha-tocopherol, ascorbic acid.
The subject of series [2] is DNA fragmentation induced by low-dose t-BuOOH. The following applies: mouse.
A further series has as its system 341 patients. Conditions: single-agent therapy, 2 years; vitamin E 2,000 UI/daily, selegiline 10 mg daily.
In series [3] the test system is hippocampal cell cultures.

For `O=C(O)C=Cc1ccc(O)c(O)c1` [caffeic acid, 3-(3,4-Dihydroxyphenyl)-2-propenoic acid], in the series on isolated LDL, the “time of oxidation of LDL” value is reported as “prolonged”. Moreover, in series [1], the “activity of the NF-kappa B binding induced by ceramide” value is reported as “inhibits significantly” and the “apoptotic response induced by ceramide” value is “inhibits significantly”.
On to `NC(=O)c1cccnc1` [nicotinamide], for which the DNA fragmentation result in series [2] was “able to prevent DNA fragmentation”.
For the molecule `C#CCN(C)[C@H](C)Cc1ccccc1` [selegiline], the retarded cognitive deterioration in the series with 341 patients is 25%.
With vitamin E, the “beta A4 induced cell death” value in series [3] was “reduces beta A4 induced cell death”. Also, the “adverse effects with high doses” value (3000 IU) is “indigestion, gastric distress, diarrhea and severe cramps”. The “adverse symptoms (uncommon)” value (in vivo) was “cataract, haemorrhage risk in patient with vitamin K deficiency, and syncope”. The retarded cognitive deterioration in the series with 341 patients was 25%.
